The values below come from ChEMBL document CHEMBL1201862, “PubChem BioAssay data set” (2004).

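Protocol summary: plate cells (96-well), add compound at 5 concentrations, incubate 48 h, interpolate endpoints linearly. At the GI50, growth is halved.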 The source made the active and inactive calls. Rule as the data show it: active = GI50 up to about 1.1 µM and inactive = higher.

Common to all, as to experiment: growth of human tumour cells (NCI), 48 h
Assay [1] concerns A549.
Assay [2] has as its system HL-60.
The subject of assay [3] is HOP-62.
In assay [4] the test system is M14.
Assay [5] has as its system MOLT-4.
Assay [6] relates to Malme-3M.
Assay [7] relates to NCI-H522.
Assay [8] has as its system OVCAR-4.
The test system of assay [9] is SF-295.
For assay [10], the system named is SK-MEL-5.
Assay [11] concerns SNB-75.
The subject of assay [12] is SW-620.
Assay [13] deals with TK-10.
The test system of assay [14] is U-251.
The subject of assay [15] is UACC-257.
The test system of assay [16] is SK-MEL-28.

As to `Cn1c(N)nc(=O)c2c1N(C1OC(CO)C(O)C1O)CN2Cc1ccccc1` (centres undefined), the GI50 in assay [1], in assay [2], in assay [3], in assay [4], in [5] and in assay [6] was > 100 µM (inactive) throughout. Further, the GI50 in assay [7], in assay [8], in assay [9], in [10], in assay [11] and in [12] was > 100 µM (inactive) in each case. Also, the GI50 in [13], in assay [14] and in assay [15] was > 100 µM (inactive) throughout.

With `O=C(O)CCC(N/C=C1/N=C(c2ccccc2)OC1=O)C(=O)O` (centres undefined), the GI50 in assay [1] is > 100 µM (inactive); in assay [2], 10 µM (inactive); in assay [3] it was > 100 µM (inactive); in assay [4] it was > 100 µM (inactive); in [5] it was > 100 µM (inactive); in assay [6], > 100 µM (inactive). In addition, the GI50 in assay [7], in [8], in [9], in [16], in [10] and in assay [11] was > 100 µM (inactive) each time. In addition, the GI50 in assay [12], in assay [13], in assay [14] and in [15] was > 100 µM (inactive) each time.

Regarding `C=CCn1c(=O)c(C(=O)NC(=O)OCC)cn(C2CCCCC2)c1=O`, the GI50 in assay [1], in assay [2], in [3], in assay [4], in [5] and in [6] was > 100 µM (inactive) each time. The GI50 in assay [8], in assay [9], in assay [16], in assay [10], in [11] and in assay [12] was > 100 µM (inactive) in each case. Also, the GI50 in assay [13], in assay [14] and in assay [15] was > 100 µM (inactive) each time.

As for `Cc1ccc(N2C(=O)CS/C2=C(\C#N)c2nc3ccccc3[nH]2)cc1`, the GI50 in [1], in assay [2], in assay [3], in assay [4], in [5] and in [6] was > 100 µM (inactive) each time. Further, the GI50 in assay [7], in assay [8], in [16], in assay [10], in assay [11] and in [12] was > 100 µM (inactive) each time. Besides, the GI50 in assay [13], in [14] and in assay [15] was > 100 µM (inactive) throughout.

For `CCCCn1c2ccccc2c2ccc3c(c21)C(=O)C=CC3=O`, the GI50 in assay [1] is > 100 µM (inactive); in assay [3], > 100 µM (inactive); in assay [4], > 100 µM (inactive); in assay [5], 54.8 µM (inactive); in [6] it was > 100 µM (inactive); in assay [7] it was > 100 µM (inactive). The GI50 in assay [8] is > 100 µM (inactive); in assay [9] it was > 100 µM (inactive); in [16], > 100 µM (inactive); in assay [10], > 100 µM (inactive); in [11], 0.0521 µM (active); in assay [12] it was > 100 µM (inactive). In addition, the GI50 in assay [13], in [14] and in assay [15] was > 100 µM (inactive) in each case.

In the case of `CC(=O)c1sc(-c2nc(C)c(C(=O)/C=C\c3ccc(/C=C\C(=O)c4sc(-c5nc(C)c(C(C)=O)s5)nc4C)cc3)s2)nc1C`, the GI50 in [1], in assay [2], in [3], in assay [4], in assay [5] and in assay [6] was > 100 µM (inactive) throughout. Also, the GI50 in [7], in assay [8], in assay [9], in assay [16], in assay [12] and in [13] was > 100 µM (inactive) in each case. Besides, the GI50 in assay [14] and in [15] was > 100 µM (inactive) throughout.

For the compound `Cc1ccc(-c2cc(=O)c3cc(C)c(C)c(C(=O)O)c3o2)cc1[N+](=O)[O-]`, the GI50 in assay [1], in [4], in assay [5], in assay [6], in [7] and in assay [8] was > 100 µM (inactive) in each case. Moreover, the GI50 in [9], in [16], in assay [10], in [11], in [12] and in assay [13] was > 100 µM (inactive) throughout. Further, the GI50 in assay [14] and in assay [15] was > 100 µM (inactive) each time.

Take `O=C(NCC(O)CNC(=O)C(F)(F)F)C(F)(F)F`: the GI50 in assay [1], in assay [2], in [3], in assay [4], in assay [5] and in assay [6] was > 100 µM (inactive) each time. Besides, the GI50 in assay [7], in assay [8], in assay [9], in [10], in assay [11] and in assay [12] was > 100 µM (inactive) in each case. The GI50 in assay [13], in assay [14] and in [15] was > 100 µM (inactive) throughout.

Turning to `COC(=O)C(C(=O)C(=O)Nc1ccc([N+](=O)[O-])cc1[N+](=O)[O-])c1nc2ccc(Cl)cc2nc1O` (centres undefined), the GI50 in assay [1] was > 100 µM (inactive); in assay [2], > 100 µM (inactive); in [3], > 100 µM (inactive); in [4] it was > 100 µM (inactive); in [5], 73.1 µM (inactive); in assay [6], > 100 µM (inactive). The GI50 in assay [8] was > 100 µM (inactive); in assay [9], > 100 µM (inactive); in assay [16], > 100 µM (inactive); in assay [10] it was 99.8 µM (inactive); in [11], 68.2 µM (inactive); in [12], > 100 µM (inactive). The GI50 in [13] and in assay [15] was > 100 µM (inactive) in each case.

For `[O-][S+]1c2ccccc2N=C(c2cccs2)CC1c1ccccc1O` (centres undefined), the GI50 in assay [1] was > 100 µM (inactive); in [2], > 100 µM (inactive); in assay [3], 97.5 µM (inactive); in assay [4], > 100 µM (inactive); in assay [5], > 100 µM (inactive); in [6], > 100 µM (inactive). Also, the GI50 was 65.2 µM (inactive) in assay [7]; > 100 µM (inactive) in assay [8]; 70.3 µM (inactive) in assay [9]; > 100 µM (inactive) in [16]; > 100 µM (inactive) in assay [10]; 32.4 µM (inactive) in [11]. Besides, the GI50 in assay [12], in assay [13] and in [15] was > 100 µM (inactive) each time.

On to `COc1cccc2c1N[S@](=O)S2`, for which the GI50 in [1] was > 100 µM (inactive); in [2], > 100 µM (inactive); in [4], > 100 µM (inactive); in assay [5] it was 42.1 µM (inactive); in [6] it was > 100 µM (inactive); in [7] it was 86.1 µM (inactive). The GI50 in [9] is 95.7 µM (inactive); in assay [16], > 100 µM (inactive); in assay [11] it was 81.5 µM (inactive); in [12] it was > 100 µM (inactive); in assay [13] it was > 100 µM (inactive); in assay [14], 39.3 µM (inactive). Also, the GI50 in [15] was > 100 µM (inactive).

In the case of `NC(=O)NC12CC3CC(CC(F)(C3)C1)C2`, the GI50 in assay [1], in assay [2], in [3], in assay [4], in [5] and in [6] was > 100 µM (inactive) throughout. The GI50 in assay [7] was > 100 µM (inactive); in assay [16], > 100 µM (inactive); in assay [11], 87.9 µM (inactive); in assay [12], > 100 µM (inactive); in assay [13], > 100 µM (inactive); in assay [14], > 100 µM (inactive). In addition, in assay [15], the GI50 is > 100 µM (inactive).

Regarding `Cc1cc(Cl)ccc1N1C(=O)C(=O)C(c2nc3ccccc3s2)/C(=N\NC(=O)c2ccccc2O)C1=O` (centres undefined), the GI50 in [1], in assay [2], in assay [3], in assay [4], in [6] and in assay [7] was > 100 µM (inactive) each time. Also, the GI50 in assay [8], in assay [9], in assay [16], in assay [10], in [11] and in assay [12] was > 100 µM (inactive) throughout. Further, the GI50 in [13], in assay [14] and in assay [15] was > 100 µM (inactive) throughout.
